# In patent US20240216410A1, “METHODS AND COMPOSITIONS FOR TREATING CANCER THERAPY-INDUCED NEUTROPENIC FEVER AND/OR GVHD” (BOARD OF REGENTS, THE UNIVERSITY OF TEXAS SYSTEM, priority 2021, published 2024):
# Entries after “also recorded” stand apart in the source; their conditions may differ.
# How the values were obtained:
# intestinal microbiota = assay: Murine GVHD model: fecal microbiome composition (16S rRNA sequencing) and bacterial density (qPCR); format: in vivo, mice
# Method: Effects of meropenem treatment on the composition of the intestinal microbiota of allo-HSCT mice were also examined (FIG. 15F).
# Sequencing of 16S rRNA gene amplicons. Fecal samples from patients and mice were weighed before DNA isolation. In brief, genomic DNA was isolated using the QIAAMP® DNA mini kit (51306, QIAGEN®) according to the manufacturer's protocol that was modified to include an intensive bead-beating lysis step. The V4 region of 16S rRNA gene was amplified by PCR from 100 ng of each of extracted and purified genomic DNA using 515 forward and 806 reverse primer pairs (59). The quality and quantity of the barcoded amplicons were assessed on an Agilent 4200 TapeStation system (Agilent) and QUBIT™ Fluorometer (THERMO FISHER […]™), and libraries were prepared after pooling at equimolar ratios. The final libraries were purified using […]® gel extraction kit (28706X4, QIAGEN®) and sequenced with a 2×250 base pair paired-end protocol on the […]® MISEQ™ platform.
# Microbiome data analysis. Sequencing data from paired-end reads were de-multiplexed using QIIME 2 (60). Merging of paired-end reads, dereplicating, and length filtering was performed using VSEARCH 2.17.1 (61). Following de-noising and chimera calling using the unoise3 command (62), unique sequences were taxonomically classified with mothur (63) using the Silva database (64) version 138. Weighted UniFrac distances (65) were determined using QIIME 2, visualized using principal coordinate analysis, and evaluated for statistical significance using permutational multivariate analysis of variance (PERMANOVA) testing. For differential abundance analysis, abundances of sequences belonging to taxonomical groups were included for analysis using the Mann-Whitney U test and adjusted for multiple comparisons using the method of Benjamini and Hochberg. Paired samples were analyzed using the Wilcoxon signed rank test with adjustment for multiple comparisons.
# Quantification of fecal bacterial density. Genomic DNA was isolated from stool as described above. qPCR was performed as previously described (66). In brief, 16S rRNA gene sequences were amplified from total fecal DNA using the primers 926F (5′-[…]-3′, where K is a G or a T; SEQ ID NO:2) and 1062R (5′-[…]-3′, where R is an A or a G; SEQ ID NO:3). Real-time PCR were carried out in 96-well optical plates on QUANTSTUDIO™ Flex 6 RT PCR (APPLIED BIOSYSTEMS™) and KAPA SYBR® FAST Master Mix (Roche). The PCR conditions included one initial denaturing step of 10 min at 95° C. and 40 cycles of 95° C. for 20 sec and 60 °C for 1 min. Melting-curve analysis was performed after amplification. To determined bacterial density, a plasmid with a 16S rRNA gene of a murine Blautia isolate was generated in the pCR4 backbone and used as a standard.
# [1] = test system: neutrophils and dendritic cells in the colon; assay: Murine GVHD model: colonic infiltration by neutrophils and dendritic cells; format: in vivo; details: meropenem-treated mice with GVHD
# Source text: Altogether, these findings indicate that, in some cases, meropenem treatment leads to compromise of the colonic mucus layer, increased bacterial translocation and an aggravated inflammatory response.
# Histological and immunohistochemistry analysis. […] Pathology scores were quantified by a blinded pathologist. […] Sections were imaged using an APERIO® AT2.
# Lamina propria hematopoietic cell dissociation. Murine colons were isolated, dissected longitudinally and then on a shaker in 2% fetal bovine serum in PBS with 1 mM DL-dithiothreitol (Bioworld) at 37 °C for 20 min and subsequently incubated with 1.3 mM EDTA at 37° C. for 40 min. They were rinsed twice and digested with 0.3 mg/ml of type IV collagenase (C5138, SIGMA-ALDRICH®) at 37 °C for 45 min, homogenized, filtered, and washed.
# Flow cytometric analysis. Monoclonal antibodies conjugated with fluorescein isothiocynate, phycoerythrin, phycoerythrin-Cy7, peridinin-chlorophyll protein complexes, allophycocyanin, or allophycocyanin-Cy7 were purchased from Tonbo Biosciences (San Diego, CA), EBIOSCIENCE™ (San Diego, CA), or BIOLEGEND® (San Diego, CA.). […] In flow cytometric analysis, at least 100,000 live samples were analyzed using BD LSRFORTESSA™ X-20 (BD Biosciences) and FlowJo software (Trec Star, OR). […]
smiles,measurement,setting,value
C[C@@H](O)[C@H]1C(=O)N2C(C(=O)O)=C(S[C@@H]3CN[C@H](C(=O)N(C)C)C3)[C@H](C)[C@H]12 [meropenem],abundance of murine BT,"intestinal microbiota; allo-HSCT mice, days 0, 7, 14, 21",suppressed by meropenem-supplemented drinking water but quickly expanded after cessation of meropenem therapy; also recorded: higher abundances of BT
same,abundance of Clostridia,"intestinal microbiota; allogeneic mice, days 0, 7, 14, 21",significantly decreased; also recorded: depleted
same,fecal bacterial density,"intestinal microbiota; day 14 after allo-HSCT, during meropenem treatment",significantly decreased bacterial density
same,fecal bacterial density,"intestinal microbiota; day 21, 6 days after stopping meropenem",recovered to a level similar to that of untreated syngeneic and allogeneic mice
same,alpha diversity (inverse Simpson index),intestinal microbiota; fecal samples day 21,significantly reduced
same,bacterial genera depleted,intestinal microbiota; fecal samples day 21,"many genera were depleted, including Blautia, Lachnoclostridium, and other members of Lachnospiraceae"
same,bacterial genera with increased abundance,intestinal microbiota; fecal samples day 21,"significantly higher abundances of bacteria from several genera, including most substantially Bacteroides, as well as Enterococcus, Erysipelatoclostridium, Bifidobacterium and Akkermansia"
same,colonic tissue infiltration by neutrophils and dendritic cells,[1],marked colonic tissue infiltration by neutrophils and dendritic cells
